Laboratory results reported in publication PMC12196347, “Evaluating Triazole-Substituted Pyrrolopyrimidines as CSF1R Inhibitors” (Molecules, 2025).
Read-outs that look alike come from different tables or passages of the source.

Columns and labels:
[1] = target: T1, FER (Homo sapiens, UniProt P16591); assay: Kinase panel profiling: FER; type: biochemical; details: ATP equal to KM
T1 construct: purchased Thermo Fisher Scientific (Invitrogen) SelectScreen (Z'-LYTE)

[2] = target: T2, AKT1 (PKB alpha) (Homo sapiens, UniProt P31749); assay: Kinase panel profiling: AKT1; type: biochemical; details: ATP equal to KM
T2 construct: purchased Thermo Fisher Scientific (Invitrogen) SelectScreen (Z'-LYTE)

[3] = target: T3, DAPK1 (Homo sapiens, UniProt P53355); assay: Kinase panel profiling: DAPK1; type: biochemical; details: ATP equal to KM
T3 construct: purchased Thermo Fisher Scientific (Invitrogen) SelectScreen (Z'-LYTE)

[4] = target: T4, CAMK1D (CaMKI delta) (Homo sapiens, UniProt Q8IU85); assay: Kinase panel profiling: CAMK1D; type: biochemical; details: ATP equal to KM
T4 construct: purchased Thermo Fisher Scientific (Invitrogen) SelectScreen (Z'-LYTE)

[5] = target: T5, FLT4 (VEGFR3) (Homo sapiens, UniProt P35916); assay: Kinase panel profiling: FLT4; type: biochemical; details: ATP equal to KM
T5 construct: purchased Thermo Fisher Scientific (Invitrogen) SelectScreen (Z'-LYTE)

[6] = target: PDGFRB (PDGFR beta) (Homo sapiens, UniProt P09619); assay: Kinase panel profiling: PDGFRB; type: biochemical; details: ATP equal to KM
[7] = target: T6, FRAP1 (mTOR) (Homo sapiens, UniProt P42345); assay: Kinase panel profiling: FRAP1; type: biochemical; details: ATP equal to KM
T6 construct: purchased Thermo Fisher Scientific (Invitrogen) SelectScreen (Z'-LYTE)

[8] = target: T7, HCK (Homo sapiens, UniProt P08631); assay: Kinase panel profiling: HCK; type: biochemical; details: ATP equal to KM
T7 construct: purchased Thermo Fisher Scientific (Invitrogen) SelectScreen (Z'-LYTE)

[9] = test system: panel of 49 kinases; assay: Selectivity score from the kinase panel; type: biochemical; details: 1000 nM
[10] = target: T8, CHEK1 (CHK1) (Homo sapiens, UniProt O14757); assay: Kinase panel profiling: CHEK1; type: biochemical; details: ATP equal to KM
T8 construct: purchased Thermo Fisher Scientific (Invitrogen) SelectScreen (Z'-LYTE)
T8 sequence (O14757 1-476): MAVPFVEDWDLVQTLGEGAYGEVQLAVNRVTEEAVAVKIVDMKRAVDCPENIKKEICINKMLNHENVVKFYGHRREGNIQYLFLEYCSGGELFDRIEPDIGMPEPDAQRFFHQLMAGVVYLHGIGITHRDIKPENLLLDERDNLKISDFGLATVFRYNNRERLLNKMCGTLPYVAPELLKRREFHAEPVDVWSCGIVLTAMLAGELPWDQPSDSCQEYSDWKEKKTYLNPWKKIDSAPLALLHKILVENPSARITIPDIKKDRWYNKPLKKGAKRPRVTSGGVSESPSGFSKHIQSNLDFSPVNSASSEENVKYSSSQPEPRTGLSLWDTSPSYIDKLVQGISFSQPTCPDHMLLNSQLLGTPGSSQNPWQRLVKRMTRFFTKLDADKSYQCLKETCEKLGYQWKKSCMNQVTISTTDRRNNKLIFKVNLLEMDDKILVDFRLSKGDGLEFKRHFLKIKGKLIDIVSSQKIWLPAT

[11] = test system: CSF1R Ba/F3 cells; assay: Cell viability assay, Ba/F3 cells engineered to be dependent on CSF1R; type: cell-based; details: Mus musculus, BaF3, Ba/F3 cells dependent on CSF1R, duplicate measurements
[12] = target: T9, CSF1R (Homo sapiens, UniProt P07333); assay: CSF1R enzymatic inhibition, TR-FRET-based LANCE Ultra assay; type: biochemical; details: single 8-point titrations, ATP concentration 25 µM, read-out: Enz. IC50
T9 sequence (P07333 539-972 limits assumed): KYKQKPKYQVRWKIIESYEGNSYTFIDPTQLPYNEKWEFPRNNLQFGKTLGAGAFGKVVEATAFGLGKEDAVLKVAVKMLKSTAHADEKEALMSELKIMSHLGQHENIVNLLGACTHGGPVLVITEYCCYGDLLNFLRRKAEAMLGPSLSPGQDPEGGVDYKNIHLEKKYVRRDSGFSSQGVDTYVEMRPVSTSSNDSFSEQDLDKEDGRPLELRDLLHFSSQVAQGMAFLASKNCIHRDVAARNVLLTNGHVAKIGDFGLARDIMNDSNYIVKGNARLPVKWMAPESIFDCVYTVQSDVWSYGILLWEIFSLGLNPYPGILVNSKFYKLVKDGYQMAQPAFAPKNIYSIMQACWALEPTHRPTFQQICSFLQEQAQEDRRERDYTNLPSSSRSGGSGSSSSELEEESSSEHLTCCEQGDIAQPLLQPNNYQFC

[13] = target: T10, LTK (TYK1) (Homo sapiens, UniProt P29376); assay: Kinase panel profiling: LTK; type: biochemical; details: ATP equal to KM
T10 construct: purchased Thermo Fisher Scientific (Invitrogen) SelectScreen (Z'-LYTE)

[14] = target: T11, PAK1 (Homo sapiens, UniProt Q13153); assay: Kinase panel profiling: PAK1; type: biochemical; details: ATP equal to KM
T11 construct: purchased Thermo Fisher Scientific (Invitrogen) SelectScreen (Z'-LYTE)

[15] = target: T12, ABL1 (Homo sapiens, UniProt P00519); assay: Kinase panel profiling: ABL1; type: biochemical; details: ATP equal to KM
T12 construct: purchased Thermo Fisher Scientific (Invitrogen) SelectScreen (Z'-LYTE)

[16] = target: T13, CSF1R (FMS) (Homo sapiens, UniProt P07333); assay: Kinase panel profiling: CSF1R; type: biochemical; details: ATP equal to KM
T13 construct: purchased Thermo Fisher Scientific (Invitrogen) SelectScreen (Z'-LYTE)

[17] = 1000 nM test concentration, read-out: Average inhibition (%)
[18] = 1000 nM, first data point, read-out: Inhibition (%)
[19] = 1000 nM, second data point, read-out: Inhibition (%)

T2 sequence (P31749 whole entry): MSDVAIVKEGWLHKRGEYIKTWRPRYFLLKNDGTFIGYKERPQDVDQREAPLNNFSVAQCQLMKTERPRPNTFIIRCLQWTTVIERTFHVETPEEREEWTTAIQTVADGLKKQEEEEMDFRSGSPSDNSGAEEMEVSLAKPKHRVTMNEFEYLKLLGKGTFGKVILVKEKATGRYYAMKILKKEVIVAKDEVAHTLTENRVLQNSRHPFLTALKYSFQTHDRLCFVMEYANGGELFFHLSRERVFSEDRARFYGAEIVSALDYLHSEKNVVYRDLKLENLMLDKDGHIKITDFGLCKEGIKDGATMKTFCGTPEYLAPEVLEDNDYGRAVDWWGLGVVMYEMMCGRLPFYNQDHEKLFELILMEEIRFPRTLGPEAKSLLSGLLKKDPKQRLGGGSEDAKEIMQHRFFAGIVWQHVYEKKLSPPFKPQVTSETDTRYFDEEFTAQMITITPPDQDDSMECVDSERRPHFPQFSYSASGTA
Sequence of PDGFRB (PDGFR beta) (P09619 33-1106): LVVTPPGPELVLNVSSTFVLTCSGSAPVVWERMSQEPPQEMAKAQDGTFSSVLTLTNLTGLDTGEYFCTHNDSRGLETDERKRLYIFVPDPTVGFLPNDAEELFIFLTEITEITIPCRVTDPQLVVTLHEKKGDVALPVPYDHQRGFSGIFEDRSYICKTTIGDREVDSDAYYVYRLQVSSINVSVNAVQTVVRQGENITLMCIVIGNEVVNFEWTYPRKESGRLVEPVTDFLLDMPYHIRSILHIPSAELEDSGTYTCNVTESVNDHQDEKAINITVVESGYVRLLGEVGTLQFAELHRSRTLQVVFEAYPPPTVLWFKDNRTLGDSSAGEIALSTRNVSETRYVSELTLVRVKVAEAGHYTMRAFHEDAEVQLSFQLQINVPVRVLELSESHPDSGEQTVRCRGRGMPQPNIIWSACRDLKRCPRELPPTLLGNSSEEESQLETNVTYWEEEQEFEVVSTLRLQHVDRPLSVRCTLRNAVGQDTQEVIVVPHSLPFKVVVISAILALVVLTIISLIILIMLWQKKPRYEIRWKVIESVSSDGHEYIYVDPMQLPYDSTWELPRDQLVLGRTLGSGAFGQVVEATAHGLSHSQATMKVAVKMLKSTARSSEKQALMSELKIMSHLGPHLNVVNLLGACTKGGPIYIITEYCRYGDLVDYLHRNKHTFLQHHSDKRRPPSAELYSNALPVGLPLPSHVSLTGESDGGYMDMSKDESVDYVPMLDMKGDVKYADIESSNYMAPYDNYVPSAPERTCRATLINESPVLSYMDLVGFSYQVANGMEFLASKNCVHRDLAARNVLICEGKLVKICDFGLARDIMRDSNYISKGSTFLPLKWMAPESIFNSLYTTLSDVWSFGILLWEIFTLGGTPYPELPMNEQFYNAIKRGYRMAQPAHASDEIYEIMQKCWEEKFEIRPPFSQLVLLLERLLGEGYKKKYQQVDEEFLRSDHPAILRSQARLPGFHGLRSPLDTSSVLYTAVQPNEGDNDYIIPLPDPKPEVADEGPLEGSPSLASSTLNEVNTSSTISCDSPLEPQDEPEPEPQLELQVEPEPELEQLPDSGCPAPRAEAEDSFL
T3 sequence (P53355 whole entry): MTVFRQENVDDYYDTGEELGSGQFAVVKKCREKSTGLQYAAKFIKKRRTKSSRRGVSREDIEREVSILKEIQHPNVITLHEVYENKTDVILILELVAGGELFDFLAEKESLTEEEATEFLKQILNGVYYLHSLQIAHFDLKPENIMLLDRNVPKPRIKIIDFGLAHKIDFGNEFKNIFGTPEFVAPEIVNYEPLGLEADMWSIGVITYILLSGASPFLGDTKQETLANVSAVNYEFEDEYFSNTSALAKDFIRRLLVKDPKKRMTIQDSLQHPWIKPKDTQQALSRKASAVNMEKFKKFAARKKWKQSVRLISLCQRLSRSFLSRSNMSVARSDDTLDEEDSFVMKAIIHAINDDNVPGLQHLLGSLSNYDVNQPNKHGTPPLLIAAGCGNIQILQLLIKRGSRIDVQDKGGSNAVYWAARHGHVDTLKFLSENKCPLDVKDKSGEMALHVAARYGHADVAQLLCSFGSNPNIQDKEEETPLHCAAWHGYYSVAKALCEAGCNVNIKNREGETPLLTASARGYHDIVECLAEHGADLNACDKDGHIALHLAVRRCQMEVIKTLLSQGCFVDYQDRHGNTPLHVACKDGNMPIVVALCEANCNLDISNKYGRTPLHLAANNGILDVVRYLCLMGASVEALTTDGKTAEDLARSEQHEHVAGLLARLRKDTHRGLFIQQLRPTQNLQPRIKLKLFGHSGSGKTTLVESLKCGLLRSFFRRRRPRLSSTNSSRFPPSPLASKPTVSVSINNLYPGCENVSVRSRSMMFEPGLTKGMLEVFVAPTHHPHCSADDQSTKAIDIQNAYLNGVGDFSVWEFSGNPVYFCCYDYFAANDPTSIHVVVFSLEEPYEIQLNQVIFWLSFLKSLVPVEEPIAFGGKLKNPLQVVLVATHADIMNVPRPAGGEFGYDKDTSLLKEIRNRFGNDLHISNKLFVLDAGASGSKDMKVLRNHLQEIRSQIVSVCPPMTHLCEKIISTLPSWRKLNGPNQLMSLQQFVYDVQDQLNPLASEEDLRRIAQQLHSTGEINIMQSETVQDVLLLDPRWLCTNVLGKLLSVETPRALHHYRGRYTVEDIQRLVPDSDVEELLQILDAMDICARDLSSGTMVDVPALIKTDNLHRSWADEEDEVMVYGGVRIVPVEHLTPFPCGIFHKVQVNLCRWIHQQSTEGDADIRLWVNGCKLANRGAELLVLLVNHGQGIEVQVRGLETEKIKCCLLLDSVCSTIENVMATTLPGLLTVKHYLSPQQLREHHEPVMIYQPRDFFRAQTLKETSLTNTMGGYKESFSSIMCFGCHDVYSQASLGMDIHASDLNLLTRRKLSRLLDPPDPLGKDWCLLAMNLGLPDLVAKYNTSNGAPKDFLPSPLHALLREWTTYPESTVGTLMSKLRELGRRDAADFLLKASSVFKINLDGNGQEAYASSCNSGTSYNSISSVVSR
T4 sequence (Q8IU85 whole entry): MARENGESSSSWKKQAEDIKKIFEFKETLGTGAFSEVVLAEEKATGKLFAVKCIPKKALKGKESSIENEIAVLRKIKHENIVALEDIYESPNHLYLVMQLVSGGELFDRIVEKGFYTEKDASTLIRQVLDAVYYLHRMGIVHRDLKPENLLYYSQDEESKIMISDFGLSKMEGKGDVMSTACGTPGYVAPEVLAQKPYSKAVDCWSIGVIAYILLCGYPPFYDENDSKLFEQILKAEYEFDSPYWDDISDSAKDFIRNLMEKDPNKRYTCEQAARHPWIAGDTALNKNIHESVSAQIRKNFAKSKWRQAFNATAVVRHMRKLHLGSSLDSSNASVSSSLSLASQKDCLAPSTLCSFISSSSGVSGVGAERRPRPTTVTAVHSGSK
T11 sequence (Q13153 whole entry): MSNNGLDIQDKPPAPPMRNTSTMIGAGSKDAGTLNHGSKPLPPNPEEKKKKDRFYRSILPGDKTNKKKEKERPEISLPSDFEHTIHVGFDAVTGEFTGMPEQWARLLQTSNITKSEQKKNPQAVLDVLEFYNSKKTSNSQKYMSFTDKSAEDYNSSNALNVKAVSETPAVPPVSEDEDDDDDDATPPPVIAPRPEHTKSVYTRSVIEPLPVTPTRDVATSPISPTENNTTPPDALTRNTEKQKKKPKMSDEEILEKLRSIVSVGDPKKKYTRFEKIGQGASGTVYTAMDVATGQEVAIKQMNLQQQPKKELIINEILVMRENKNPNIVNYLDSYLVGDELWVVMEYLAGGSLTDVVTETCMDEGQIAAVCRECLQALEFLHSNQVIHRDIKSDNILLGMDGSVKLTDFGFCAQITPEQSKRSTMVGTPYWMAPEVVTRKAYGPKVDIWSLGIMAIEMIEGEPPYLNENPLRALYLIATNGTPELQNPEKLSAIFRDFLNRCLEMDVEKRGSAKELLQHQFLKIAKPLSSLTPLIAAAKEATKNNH
T7 sequence (P08631 whole entry): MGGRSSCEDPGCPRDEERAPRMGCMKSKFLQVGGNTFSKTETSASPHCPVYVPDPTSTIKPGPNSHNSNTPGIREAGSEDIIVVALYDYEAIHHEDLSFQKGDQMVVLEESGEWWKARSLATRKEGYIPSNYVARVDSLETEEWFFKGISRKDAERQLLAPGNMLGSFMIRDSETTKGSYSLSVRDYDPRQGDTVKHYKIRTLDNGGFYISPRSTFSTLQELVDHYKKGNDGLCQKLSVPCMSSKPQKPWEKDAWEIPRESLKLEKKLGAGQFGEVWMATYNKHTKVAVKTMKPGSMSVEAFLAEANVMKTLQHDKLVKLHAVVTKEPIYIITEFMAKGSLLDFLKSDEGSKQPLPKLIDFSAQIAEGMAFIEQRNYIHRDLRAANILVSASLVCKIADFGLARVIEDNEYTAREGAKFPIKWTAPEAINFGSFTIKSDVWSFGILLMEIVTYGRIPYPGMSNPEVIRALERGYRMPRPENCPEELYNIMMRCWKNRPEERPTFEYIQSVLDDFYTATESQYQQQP

- inhibition at 1 µM [1, 17]: 15%
- inhibition at 1 µM [1, 18]: 16%
- inhibition at 1 µM [1, 19]: 14%
- inhibition at 1 µM [2, 17]: 2%
- inhibition at 1 µM [2, 18]: 3%
- inhibition at 1 µM [2, 19]: 1%
- inhibition at 1 µM [3, 17]: 4%
- inhibition at 1 µM [3, 18]: 13%
- inhibition at 1 µM [3, 19]: -5%
- inhibition at 1 µM [4, 17]: 5%
- inhibition at 1 µM [4, 18]: 2%
- inhibition at 1 µM [4, 19]: 9%
- inhibition at 1 µM [5, 17]: 16%
- inhibition at 1 µM [5, 18]: 15%
- inhibition at 1 µM [5, 19]: 16%
- inhibition at 1 µM [6, 17]: 34%
- inhibition at 1 µM [6, 18]: 32%
- inhibition at 1 µM [6, 19]: 35%
- inhibition at 1 µM [7, 17]: -3%
- inhibition at 1 µM [7, 18]: -4%
- inhibition at 1 µM [7, 19]: -2%
- inhibition at 1 µM [8, 17]: 77%
- inhibition at 1 µM [8, 18]: 77%
- inhibition at 1 µM [8, 19]: 76%
- selectivity score (S-score) ([9]; 30% inhibition as threshold): 0.51
- selectivity score (S-score) ([9]; 50% inhibition as threshold): 0.35
- inhibition at 1 µM [10, 17]: 5%
- inhibition at 1 µM [10, 18]: 0%
- inhibition at 1 µM [10, 19]: 9%
- IC50 [11]: 300 nM
- IC50 [12]: < 1 nM
- inhibition at 1 µM [13, 17]: 25%
- inhibition at 1 µM [13, 18]: 25%
- inhibition at 1 µM [14, 17]: 2%
- inhibition at 1 µM [14, 18]: 4%
- inhibition at 1 µM [14, 19]: 0%
- inhibition at 1 µM [15, 17]: 99%
- inhibition at 1 µM [15, 18]: 99%
- inhibition at 1 µM [16, 17]: 99%
- inhibition at 1 µM [16, 18]: 99%
SMILES: Cc1cccc(CN(C)c2ncnc3[nH]c(-c4cn(Cc5cccnc5)nn4)cc23)c1 [Compound 27a, N-Methyl-N-(3-methylbenzyl)-6-(1-(pyridin-3-ylmethyl)-1H-1,2,3-triazol-4-yl)-7H-pyrrolo[2,3-d]pyrimidin-4-amine]
